Laboratory results: patent US10865208B2, “ATG7 inhibitors and the uses thereof” (Millennium Pharmaceuticals, Inc., priority 2016, dated 2020)

Molecular target: recombinant human His-ATG7 enzyme (Homo sapiens (Human), UniProt O95352)
Experiment: ATG7 Enzyme Assay (HTRF/FRET, ATG3-GST and Flag-Gabarap)
Format: biochemical
Settings: for inhibition at 0.111 µM: Concentration 0.111 μM; for inhibition at 0.123 µM: Concentration 0.123 μM
How it was run: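 HTRF read-out after 2 h at 24° C, using Eu-cryptate anti-Flag and XL-APC anti-GST antibodies in an EDTA stop buffer. The preceding 105 min, 24° C reaction (pH 7.5) held 10 μM ATP, 5 nM each ATG3-GST and Flag-Gabarap, and 0.15 nM human His-ATG7. Values are IC50 or percent inhibition at one concentration.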

recombinant human His-ATG7 enzyme, sequence (O95352 whole entry): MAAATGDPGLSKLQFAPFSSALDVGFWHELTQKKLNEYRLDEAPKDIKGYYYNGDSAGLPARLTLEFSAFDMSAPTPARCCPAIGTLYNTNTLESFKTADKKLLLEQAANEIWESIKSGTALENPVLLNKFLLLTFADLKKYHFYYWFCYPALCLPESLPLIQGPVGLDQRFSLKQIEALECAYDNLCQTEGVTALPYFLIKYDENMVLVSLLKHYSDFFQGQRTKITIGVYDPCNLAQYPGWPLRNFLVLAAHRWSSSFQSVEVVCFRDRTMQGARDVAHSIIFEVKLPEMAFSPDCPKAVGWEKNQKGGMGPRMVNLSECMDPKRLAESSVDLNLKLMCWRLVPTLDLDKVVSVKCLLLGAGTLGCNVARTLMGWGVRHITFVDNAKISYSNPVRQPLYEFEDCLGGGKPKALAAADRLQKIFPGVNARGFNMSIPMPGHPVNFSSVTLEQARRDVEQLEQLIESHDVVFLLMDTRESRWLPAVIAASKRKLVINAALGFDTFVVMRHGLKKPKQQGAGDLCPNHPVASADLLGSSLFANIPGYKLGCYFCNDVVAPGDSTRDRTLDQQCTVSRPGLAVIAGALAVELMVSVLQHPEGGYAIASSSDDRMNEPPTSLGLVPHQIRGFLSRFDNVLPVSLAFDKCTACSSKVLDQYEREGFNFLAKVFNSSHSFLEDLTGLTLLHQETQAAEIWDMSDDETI

SMILES | IC50 | inhibition at 0.111 µM (read-out: Percent Inhibition) | inhibition at 0.123 µM (read-out: Percent Inhibition) | inhibition at 0.069 µM (Concentration 0.069 μM, read-out: Percent Inhibition)
CN(C)C(=O)CSc1nn([C@H]2C[C@H](O)[C@@H](COS(N)(=O)=O)O2)c2ncnc(N)c12 [Compound I-180, [(2R,3S,5R)-5-(4-amino-3-{[2-(dimethylamino)-2-oxoethyl]sulfanyl}-1H-pyrazolo[3,4-d]pyrimidin-1-yl)-3-hydroxytetrahydrofuran-2-yl]methyl sulfamate] | 0.1 to 0.5 µM | 29% | – | –
COCC#Cc1nn([C@@H]2O[C@H](COS(N)(=O)=O)[C@@H](O)[C@H]2O)c2ncnc(N)c12 [Compound I-11, {(2R,3S,4R,5R)-5-[4-amino-3-(3-methoxyprop-1-yn-1-yl)-1H-pyrazolo[3,4-d]pyrimidin-1-yl]-3,4-dihydroxytetrahydrofuran-2-yl}methyl Sulfamate] | > 0.5 µM | – | – | 9%
Cc1ccc(Sc2nn([C@H]3C[C@H](O)[C@@H](COS(N)(=O)=O)O3)c3ncnc(N)c23)cc1 [Compound I-193, [(2R,3S,5R)-5-{4-amino-3-[(4-methylphenyl)sulfanyl]-1H-pyrazolo[3,4-d]pyrimidin-1-yl}-3-hydroxytetrahydrofuran-2-yl]methyl sulfamate] | 0.1 to 0.5 µM | 46% | – | –
Nc1ncnc2c1c(SCc1ccccc1)nn2[C@H]1C[C@H](O)[C@H](COS(N)(=O)=O)O1 [Compound I-221, {(2S,3S,5R)-5-[4-amino-3-(benzylsulfanyl)-1H-pyrazolo[3,4-d]pyrimidin-1-yl]-3-hydroxytetrahydrofuran-2-yl}methyl Sulfamate] | 0.1 to 0.5 µM | 26% | – | –
COc1nn([C@H]2C[C@H](O)[C@H](COS(N)(=O)=O)O2)c2ncnc(N)c12 [Compound I-225, [(2S,3S,5R)-5-(4-amino-3-methoxy-1H-pyrazolo[3,4-d]pyrimidin-1-yl)-3-hydroxytetrahydrofuran-2-yl]methyl sulfamate] | > 0.5 µM | 10% | – | –
Cn1cncc1Sc1nn([C@@H]2O[C@H](COS(N)(=O)=O)[C@@H](O)[C@@H]2F)c2ncnc(N)c12 [Compound I-134, [(2R,3R,4S,5R)-5-{4-amino-3-[(1-methyl-1H-imidazol-5-yl)sulfanyl]-1H-pyrazolo[3,4-d]pyrimidin-1-yl}-4-fluoro-3-hydroxytetrahydrofuran-2-yl]methyl Sulfamate] | 0.1 to 0.5 µM | 37% | – | –
Nc1ncnc2c1c(SCCO)nn2[C@H]1C[C@H](O)[C@@H](COS(N)(=O)=O)O1 [Compound I-162, [(2R,3S,5R)-5-{4-amino-3-[(2-hydroxyethyl)sulfanyl]-1H-pyrazolo[3,4-d]pyrimidin-1-yl}-3-hydroxytetrahydrofuran-2-yl]methyl Sulfamate] | 0.1 to 0.5 µM | 50% | – | –
Cc1ccc(Sc2nn([C@H]3C[C@H](O)[C@@H](COS(N)(=O)=O)O3)c3ncnc(N)c23)c(F)c1 [Compound I-161, [(2R,3S,5R)-5-{4-amino-3-[(2-fluoro-4-methylphenyl)sulfanyl]-1H-pyrazolo[3,4-d]pyrimidin-1-yl}-3-hydroxytetrahydrofuran-2-yl]methyl Sulfamate] | 0.05 to 0.1 µM | 59% | – | –
Nc1ncnc2c1c(SC(F)F)nn2[C@H]1C[C@H](O)[C@@H](COS(N)(=O)=O)O1 [Compound I-169, [(2R,3S,5R)-5-{4-amino-3-[(difluoromethyl)sulfanyl]-1H-pyrazolo[3,4-d]pyrimidin-1-yl}-3-hydroxytetrahydrofuran-2-yl]methyl sulfamate] | 0.05 to 0.1 µM | 57% | – | –
CSc1nn([C@@H]2O[C@@H](COS(N)(=O)=O)[C@@H](O)[C@@H]2F)c2ncnc(N)c12 [Compound I-96, {(2S,3R,4S,5R)-5-[4-amino-3-(methylsulfanyl)-1H-pyrazolo[3,4-d]pyrimidin-1-yl]-4-fluoro-3-hydroxytetrahydrofuran-2-yl}methyl Sulfamate] | 0.1 to 0.5 µM | 44% | – | –
CC(C)(C)c1ccc(Sc2nn([C@H]3C[C@H](O)[C@@H](COS(N)(=O)=O)O3)c3ncnc(N)c23)cc1 [Compound I-163, [(2R,3S,5R)-5-{4-amino-3-[(4-tert-butylphenyl)sulfanyl]-1H-pyrazolo[3,4-d]pyrimidin-1-yl}-3-hydroxytetrahydrofuran-2-yl]methyl sulfamate] | 0.05 to 0.1 µM | 58% | – | –
Nc1ncnc2c1c(OCc1ccccc1)nn2[C@@H]1O[C@H](COS(N)(=O)=O)[C@@H](O)[C@H]1O [Compound I-76, {(2R,3S,4R,5R)-5-[4-amino-3-(benzyloxy)-1H-pyrazolo[3,4-d]pyrimidin-1-yl]-3,4-dihydroxytetrahydrofuran-2-yl}methyl Sulfamate] | 0.1 to 0.5 µM | – | 31% | –

Continued, values first:

IC50 | inhibition at 0.111 µM (read-out: Percent Inhibition) | inhibition at 0.123 µM (read-out: Percent Inhibition) | inhibition at 0.069 µM (Concentration 0.069 μM, read-out: Percent Inhibition) | SMILES
0.05 to 0.1 µM | 66% | – | – | Nc1ncnc2c1c(Sc1ccccc1F)nn2[C@H]1C[C@H](O)[C@@H](COS(N)(=O)=O)O1 [Compound I-182, [(2R,3S,5R)-5-{4-amino-3-[(2-fluorophenyl)sulfanyl]-1H-pyrazolo[3,4-d]pyrimidin-1-yl}-3-hydroxytetrahydrofuran-2-yl]methyl sulfamate]
0.02 to 0.05 µM | 80% | – | – | Nc1ncnc2c1c(Sc1ccccc1)nn2[C@@H]1O[C@H](COS(N)(=O)=O)[C@@H](O)[C@H]1O [Compound I-82, {(2R,3S,4R,5R)-5-[4-amino-3-(phenylsulfanyl)-1H-pyrazolo[3,4-d]pyrimidin-1-yl]-3,4-dihydroxytetrahydrofuran-2-yl}methyl Sulfamate]
0.02 to 0.05 µM | 77% | – | – | Nc1ncnc2c1c(Sc1ccc3c(c1)OCC3)nn2[C@H]1C[C@H](O)[C@@H](COS(N)(=O)=O)O1 [Compound I-168, {(2R,3S,5R)-5-[4-amino-3-(2,3-dihydro-1-benzofuran-6-ylsulfanyl)-1H-pyrazolo[3,4-d]pyrimidin-1-yl]-3-hydroxytetrahydrofuran-2-yl}methyl sulfamate]
0.05 to 0.1 µM | – | 59% | – | NC(=S)c1nn([C@@H]2O[C@H](COS(N)(=O)=O)[C@@H](O)[C@H]2O)c2ncnc(N)c12 [Compound I-60, [(2R,3S,4R,5R)-5-(4-amino-3-carbamothioyl-1H-pyrazolo[3,4-d]pyrimidin-1-yl)-3,4-dihydroxytetrahydrofuran-2-yl]methyl Sulfamate]
< 0.02 µM | 86% | – | – | CC(C)(C)Sc1nn([C@@H]2O[C@H](COS(N)(=O)=O)[C@@H](O)[C@@H]2F)c2ncnc(N)c12 [Compound I-118, {(2R,3R,4S,5R)-5-[4-amino-3-(tert-butylsulfanyl)-1H-pyrazolo[3,4-d]pyrimidin-1-yl]-4-fluoro-3-hydroxytetrahydrofuran-2-yl}methyl sulfamate]
0.02 to 0.05 µM | 77% | – | – | N#Cc1ccnc(Sc2nn([C@@H]3O[C@H](COS(N)(=O)=O)[C@@H](O)[C@@H]3F)c3ncnc(N)c23)c1 [Compound I-130, [(2R,3R,4S,5R)-5-{4-amino-3-[(4-cyanopyridin-2-yl)sulfanyl]-1H-pyrazolo[3,4-d]pyrimidin-1-yl}-4-fluoro-3-hydroxytetrahydrofuran-2-yl]methyl sulfamate]
0.02 to 0.05 µM | – | 85% | – | Cc1cccc(CSc2nn([C@@H]3O[C@H](COS(N)(=O)=O)[C@@H](O)[C@H]3O)c3ncnc(N)c23)c1 [Compound I-31, [(2R,3S,4R,5R)-5-{4-amino-3-[(3-methylbenzyl)sulfanyl]-1H-pyrazolo[3,4-d]pyrimidin-1-yl}-3,4-dihydroxytetrahydrofuran-2-yl]methyl sulfamate]
0.05 to 0.1 µM | – | 51% | – | COc1nn([C@@H]2O[C@H](COS(N)(=O)=O)[C@@H](O)[C@H]2O)c2ncnc(N)c12 [Compound I-1, [(2R,3S,4R,5R)-5-(4-amino-3-methoxy-1H-pyrazolo[3,4-d]pyrimidin-1-yl)-3,4-dihydroxytetrahydrofuran-2-yl]methyl sulfamate]
0.02 to 0.05 µM | 74% | – | – | Nc1ncnc2c1c(Sc1ccc3c(c1)CCO3)nn2[C@H]1C[C@H](O)[C@@H](COS(N)(=O)=O)O1 [Compound I-186, {(2R,3S,5R)-5-[4-amino-3-(2,3-dihydro-1-benzofuran-5-ylsulfanyl)-1H-pyrazolo[3,4-d]pyrimidin-1-yl]-3-hydroxytetrahydrofuran-2-yl}methyl sulfamate]
0.05 to 0.1 µM | 55% | – | – | Cc1cccc(Sc2nn([C@H]3C[C@H](O)[C@@H](COS(N)(=O)=O)O3)c3ncnc(N)c23)c1 [Compound I-205, [(2R,3S,5R)-5-{4-amino-3-[(3-methylphenyl)sulfanyl]-1H-pyrazolo[3,4-d]pyrimidin-1-yl}-3-hydroxytetrahydrofuran-2-yl]methyl sulfamate]
< 0.02 µM | – | 89% | – | Nc1ncnc2c1c(SC1CC1)nn2[C@@H]1O[C@H](COS(N)(=O)=O)[C@@H](O)[C@H]1O [Compound I-65, {(2R,3S,4R,5R)-5-[4-amino-3-(cyclopropylsulfanyl)-1H-pyrazolo[3,4-d]pyrimidin-1-yl]-3,4-dihydroxytetrahydrofuran-2-yl}methyl Sulfamate]
0.05 to 0.1 µM | 57% | – | – | Nc1ncnc2c1c(SC(F)(F)F)nn2[C@@H]1O[C@H](COS(N)(=O)=O)[C@@H](O)[C@@H]1F [Compound I-142, [(2R,3R,4S,5R)-5-{4-amino-3-[(trifluoromethyl)sulfanyl]-1H-pyrazolo[3,4-d]pyrimidin-1-yl}-4-fluoro-3-hydroxytetrahydrofuran-2-yl]methyl sulfamate]
0.02 to 0.05 µM | – | 84% | – | N#CCSc1nn([C@@H]2O[C@H](COS(N)(=O)=O)[C@@H](O)[C@H]2O)c2ncnc(N)c12 [Compound I-90, [(2R,3S,4R,5R)-5-{4-amino-3-[(cyanomethyl)sulfanyl]-1H-pyrazolo[3,4-d]pyrimidin-1-yl}-3,4-dihydroxytetrahydrofuran-2-yl]methyl sulfamate]
